In patent US20230093861A1, “RAPAMYCIN ANALOGS AS MTOR INHIBITORS” (Revolution Medicines, Inc., priority 2017, published 2023):
Like-named read-outs stand apart in the source and are kept apart here.

Assays:
P-P70S6K (T389) = assay: Cell based AlphaLISA assay, inhibition of P-P70S6K (T389) (mTORC1 substrate phosphorylation) in MDA-MB-468 cells; conditions: Homo sapiens, 4 h, AlphaLISA, two to four hours at 37° C., read-out: pIC50 for Inhibition of mTORC1 and mTORC2 Substrate Phosphorylation, P-P70S6K-(T389) (converted)
Protocol: (§1) Cell Based AlphaLISA Assays for Determining IC50 for Inhibition of P-Akt (S473), P-4E-BP1 (T37/46), and P-P70S6K (T389) in MDA-MB-468 Cells
(§2) mTOR Kinase Cellular Assay
(§3) To measure functional activity of mTORC1 and mTORC2 in cells the phosphorylation of 4EBP1 (Thr37/46) and P70S6K (Thr389), and AKT1/2/3 (Ser473) was monitored using AlphaLisa SureFire Ultra Kits (Perkin Elmer). […] Incubations were terminated by removal of the assay buffer and addition of lysis buffer provided with the assay kit. Samples were processed according to the manufacturer's instructions. The Alpha signal from the respective phosphoproteins was measured in duplicate using a microplate reader (Envision, Perkin-Elmer or Spectramax M5, Molecular Devices). Inhibitor concentration response curves were analyzed using normalized IC50 regression curve fitting with control based normalization.

P-4E-BP1 (T37/46) = assay: Cell based AlphaLISA assay, inhibition of P-4E-BP1 (T37/46) (mTORC1 substrate phosphorylation) in MDA-MB-468 cells; conditions: Homo sapiens, AlphaLISA, two to four hours at 37° C., read-out: pIC50 for Inhibition of mTORC1 and mTORC2 Substrate Phosphorylation, P-4E-BP1-(T37/46) (converted)
Protocol: as §1, §2, §3

P-Akt (S473) = assay: Cell based AlphaLISA assay, inhibition of P-Akt (S473) (mTORC2 substrate phosphorylation) in MDA-MB-468 cells; conditions: Homo sapiens, AlphaLISA, two to four hours at 37° C., read-out: pIC50 for Inhibition of mTORC1 and mTORC2 Substrate Phosphorylation, p-AKT 1/2/3 -(S473) (converted)
Protocol: as §1, §2, §3

Compound | IC50 (P-P70S6K (T389)) [nM] | IC50 (P-4E-BP1 (T37/46); MDA-MB-468, 4 h) [nM] | IC50 (P-Akt (S473); MDA-MB-468, 4 h) [nM] | IC50 (P-4E-BP1 (T37/46); 4 h) [nM] | IC50 (P-Akt (S473); 4 h) [nM]
CO[C@H]1C[C@@H]2CC[C@@H](C)[C@@](O)(O2)C(=O)C(=O)N2CCCC[C@H]2C(=O)O[C@H]([C@H](C)C[C@@H]2CC[C@H](n3nncc3-c3cccc(-c4cnc(N5CCN(C(=O)CCc6cn(CCOCCOCCC(=O)NCCCCn7nc(-c8ccc9oc(N)nc9c8)c8c(N)ncnc87)nn6)CC5)nc4)c3)[C@H](OC)C2)CC(=O)[C@H](C)/C=C(\C)[C@@H](O)[C@@H](OC)C(=O)[C@H](C)C[C@H](C)/C=C/C=C/C=C/1C [Example 49] | < 1 | < 3.16 | 31.6 to 1000 | – | –
CO[C@H]1C[C@@H]2CC[C@@H](C)[C@@](O)(O2)C(=O)C(=O)N2CCCC[C@H]2C(=O)O[C@H]([C@H](C)C[C@@H]2CC[C@H](n3cc(CCCC(=O)NCCOCCOCCOCCC(=O)NCCOCCOCCOCCC(=O)NCCCCn4nc(-c5cc6cc(O)ccc6[nH]5)c5c(N)ncnc54)nn3)[C@H](OC)C2)C/C(=N/OCc2ccccc2)[C@H](C)/C=C(\C)[C@@H](O)[C@@H](OC)C(=O)[C@H](C)C[C@H](C)/C=C/C=C/C=C/1C [Example 175] | > 1000 | > 1000 | > 1000 | – | –
CO[C@H]1C[C@@H]2CC[C@@H](C)[C@@](O)(O2)C(=O)C(=O)N2CCCC[C@H]2C(=O)O[C@H]([C@H](C)C[C@@H]2CC[C@H](n3cc(CCCC(=O)NCCOCCOCCOCCC(=O)NCCOCCOCCC(=O)NCCCCn4nc(-c5ccc6oc(N)nc6c5)c5c(N)ncnc54)nn3)[C@H](OC)C2)CC(=O)[C@H](C)/C=C(\C)[C@@H](O)[C@@H](OC)C(=O)[C@H](C)C[C@H](C)/C=C/C=C/C=C/1C [Example 128] | 1 to 10 | 3.16 to 31.6 | 31.6 to 1000 | – | –
CO[C@H]1C[C@@H]2CC[C@@H](C)[C@@](O)(O2)C(=O)C(=O)N2CCCC[C@H]2C(=O)O[C@H]([C@H](C)C[C@@H]2CC[C@H](n3cc(-c4cccc(C(=O)NCCOCCOCCOCCC(=O)NCCOCCOCCOCCOCCC(=O)NCCCCn5nc(-c6ccc7oc(N)nc7c6)c6c(N)ncnc65)c4)nn3)[C@H](OC)C2)CC(=O)[C@H](C)/C=C(\C)[C@@H](O)[C@@H](OC)C(=O)[C@H](C)C[C@H](C)/C=C/C=C/C=C/1C [Example 139] | 1 to 10 | 3.16 to 31.6 | 3.16 to 31.6 | – | –
CO[C@H]1C[C@@H]2CC[C@@H](C)[C@@](O)(O2)C(=O)C(=O)N2CCCC[C@H]2C(=O)O[C@H]([C@H](C)C[C@@H]2CC[C@@H](OCCCCc3cn(CCOCCOCCOCCC(=O)NCCOCCOCCOCCC(=O)NCCCCn4nc(-c5ccc6oc(N)nc6c5)c5c(N)ncnc54)nn3)[C@H](OC)C2)CC(=O)[C@H](C)/C=C(\C)[C@@H](O)[C@@H](OC)C(=O)[C@H](C)C[C@H](C)/C=C/C=C/C=C/1C [Example 198] | < 1 | < 3.16 | 3.16 to 31.6 | – | –
CO[C@H]1C[C@@H]2CC[C@@H](C)[C@@](O)(O2)C(=O)C(=O)N2CCCC[C@H]2C(=O)O[C@H]([C@H](C)C[C@@H]2CC[C@@H](OCCCCc3cn(CCOCCOCCOCCOCCOCCOCCC(=O)NCCCCn4nc(-c5ccc6oc(N)nc6c5)c5c(N)ncnc54)nn3)[C@H](OC)C2)CC(=O)[C@H](C)/C=C(\C)[C@@H](O)[C@@H](OC)C(=O)[C@H](C)C[C@H](C)/C=C/C=C/C=C/1C [Example 3] | < 1 | – | – | < 3.16 | 3.16 to 31.6
CO[C@H]1C[C@@H]2CC[C@@H](C)[C@@](O)(O2)C(=O)C(=O)N2CCCC[C@H]2C(=O)O[C@H]([C@H](C)C[C@@H]2CC[C@@H](OCCOCc3cn(CCOCCOCCOCCOCCOCCOCCC(=O)NCCCCn4nc(-c5ccc6oc(N)nc6c5)c5c(N(C)C)ncnc54)nn3)[C@H](OC)C2)CC(=O)[C@H](C)/C=C(\C)[C@@H](O)[C@@H](OC)C(=O)[C@H](C)C[C@H](C)/C=C/C=C/C=C/1C [Example 10] | < 1 | > 1000 | > 1000 | – | –
CO[C@H]1C[C@@H]2CC[C@@H](C)[C@@](O)(O2)C(=O)C(=O)N2CCCC[C@H]2C(=O)O[C@H]([C@H](C)C[C@@H]2CC[C@@H](OCCCCc3cn(CCOCCOCCOCCOCCOCCC(=O)NCCCCn4nc(-c5ccc6oc(N)nc6c5)c5c(N)ncnc54)nn3)[C@H](OC)C2)CC(=O)[C@H](C)/C=C(\C)[C@@H](O)[C@@H](OC)C(=O)[C@H](C)C[C@H](C)/C=C/C=C/C=C/1C [Example 2] | < 1 | – | – | 3.16 to 31.6 | 31.6 to 1000
CO[C@H]1C[C@@H]2CC[C@@H](C)[C@@](O)(O2)C(=O)C(=O)N2CCCC[C@H]2C(=O)O[C@H]([C@H](C)C[C@@H]2CC[C@@H](OCCCCc3cn(CCOCCOCCOCCOCCOCCOCCC(=O)NCCCCn4nc(-c5cnc6[nH]ccc6c5)c5c(N)ncnc54)nn3)[C@H](OC)C2)C[C@@H](OC)[C@H](C)/C=C(\C)[C@@H](O)[C@@H](OC)C(=O)[C@H](C)C[C@H](C)/C=C/C=C/C=C/1C [Example 70] | 1 to 10 | > 1000 | > 1000 | – | –
COC(=O)NC1C[C@@H]2CC[C@@H](C)[C@@](O)(O2)C(=O)C(=O)N2CCCC[C@H]2C(=O)O[C@H]([C@H](C)C[C@@H]2CC[C@@H](OCCCCc3cn(CCOCCOCCOCCOCCOCCOCCC(=O)NCCCCn4nc(-c5ccc6oc(N)nc6c5)c5c(N)ncnc54)nn3)[C@H](OC)C2)CC(=O)[C@H](C)/C=C(\C)[C@@H](O)[C@@H](OC)C(=O)[C@H](C)C[C@H](C)/C=C/C=C/C=C/1C (stereo partly drawn) [Example 39] | 1 to 10 | 31.6 to 1000 | 31.6 to 1000 | – | –
CO[C@H]1C[C@@H]2CC[C@@H](C)[C@@](O)(O2)C(=O)C(=O)N2CCCC[C@H]2C(=O)O[C@H]([C@H](C)C[C@@H]2CC[C@@H](OC(=O)NCc3cn(CCOCCOCCOCCOCCOCCOCCOCCOCCC(=O)NCCCCn4nc(-c5ccc6oc(N)nc6c5)c5c(N)ncnc54)nn3)[C@H](OC)C2)CC(=O)[C@H](C)/C=C(\C)[C@@H](O)[C@@H](OC)C(=O)[C@H](C)C[C@H](C)/C=C/C=C/C=C/1C [Example 61] | 1 to 10 | 3.16 to 31.6 | 3.16 to 31.6 | – | –
CO[C@H]1C[C@@H]2CC[C@@H](C)[C@@](O)(O2)C(=O)C(=O)N2CCCC[C@H]2C(=O)O[C@H]([C@H](C)C[C@@H]2CC[C@H](n3cc(CCCC(=O)NCCOCCOCCOCCOCCC(=O)NCCOCCOCCOCCOCCC(=O)NCCCCn4nc(-c5cc6cc(O)ccc6[nH]5)c5c(N)ncnc54)nn3)[C@H](OC)C2)CC(=O)[C@H](C)/C=C(\C)[C@@H](O)[C@@H](OC)C(=O)[C@H](C)C[C@H](C)/C=C/C=C/C=C/1C [Example 135] | 1 to 10 | 3.16 to 31.6 | 31.6 to 1000 | – | –
CO[C@H]1C[C@@H]2CC[C@@H](C)[C@@](O)(O2)C(=O)C(=O)N2CCCC[C@H]2C(=O)O[C@H]([C@H](C)C[C@@H]2CC[C@H](n3cc(COC(=O)NCCOCCOCCOCCC(=O)NCCOCCOCCOCCC(=O)NCCCCn4nc(-c5ccc6oc(N)nc6c5)c5c(N)ncnc54)nn3)[C@H](OC)C2)C/C(=N/OC(C)(C)C)[C@H](C)/C=C(\C)[C@@H](O)[C@@H](OC)C(=O)[C@H](C)C[C@H](C)/C=C/C=C/C=C/1C [Example 160] | 10 to 1000 | > 1000 | 31.6 to 1000 | – | –
CO[C@H]1C[C@@H]2CC[C@@H](C)[C@@](O)(O2)C(=O)C(=O)N2CCCC[C@H]2C(=O)O[C@H]([C@H](C)C[C@@H]2CC[C@H](n3cc(-c4cnc(N5CCN(c6ncc(C(=O)NCCOCCOCCC(=O)NCCCCn7nc(-c8cc9cc(O)ccc9[nH]8)c8c(N)ncnc87)cn6)CC5)nc4)nn3)[C@H](OC)C2)CC(=O)[C@H](C)/C=C(\C)[C@@H](O)[C@@H](OC)C(=O)[C@H](C)C[C@H](C)/C=C/C=C/C=C/1C [Example 112] | < 1 | > 1000 | > 1000 | – | –
CO[C@H]1C[C@@H]2CC[C@@H](C)[C@@](O)(O2)C(=O)C(=O)N2CCCC[C@H]2C(=O)O[C@H]([C@H](C)C[C@@H]2CC[C@H](n3cc(COC(=O)NCCOCCOCCOCCC(=O)NCCOCCOCCC(=O)NCCCCn4nc(-c5ccc6oc(N)nc6c5)c5c(N)ncnc54)nn3)[C@H](OC)C2)C/C(=N/OCc2ccccc2)[C@H](C)/C=C(\C)[C@@H](O)[C@@H](OC)C(=O)[C@H](C)C[C@H](C)/C=C/C=C/C=C/1C [Example 154] | > 1000 | > 1000 | > 1000 | – | –
CO[C@H]1C[C@@H]2CC[C@@H](C)[C@@](O)(O2)C(=O)C(=O)N2CCCC[C@H]2C(=O)O[C@H]([C@H](C)C[C@@H]2CC[C@@H](OCCCCc3cn(CCOCCOCCOCCOCCOCCOCCOCCOCCNC(=O)c4ccc(-c5ccc6c(N7CCOC[C@H]7C)nc(N7CCOC[C@H]7C)nc6n5)cc4)nn3)[C@H](OC)C2)CC(=O)[C@H](C)/C=C(\C)[C@@H](O)[C@@H](OC)C(=O)[C@H](C)C[C@H](C)/C=C/C=C/C=C/1C [Example 107] | < 1 | < 3.16 | < 3.16 | – | –
